{"source": "patent US11583525B2", "about": "“Geranylgeranyltransferase I inhibitor for treatment of a PTEN defective cancer” (H. LEE MOFFITT CANCER CENTER AND RESEARCH INSTITUTE, INC., priority 2017, dated 2023)", "assay_type_in_all_cases": "cell-based, human", "key": {"IP3R3 [1]": {"test_system": "IP3R3", "test": "Serum-mediated degradation of IP3R3 in serum-starved, serum re-stimulated NHFs (immunoblotting)", "details": "NHFs serum-starved 72 h, re-stimulated with serum; 10 μM MG132, 10 μM Eer1", "experimental": "24 h post-transfection, cells were treated with MG132 for 3 h before harvesting for immunoprecipitation and immunoblotting as indicated. WCL, whole-cell lysate from untransfected cells. […] After harvesting, cells were lysed, and cell membranes (CM) were isolated and immunoprecipitated with either a normal mouse IgG or an anti-Flag antibody. Subsequently, immunoprecipitates were analysed by immunoblotting as indicated. The results of these experiments (n=2) indicate that FBXL2 is incorporated into a complete SCF ligase that binds its substrate(s) at cellular membranes. […] After harvesting, cells were lysed and cytoplasmic (CYTO) and cell membrane (CM) fractions were isolated and analysed by immunoblotting as indicated. Actin and calnexin are used as markers for cytoplasmic and cell membrane fractions, respectively. This experiment was performed twice. […] 24 h post-transfection, where indicated, cells were treated with MG132 for 3 h before harvesting for immunoprecipitation and immunoblotting. Ned. CUL1, neddylated CUL1. […] The experiment was performed in the presence or absence of MG132 as indicated. Whole-cell lysates were immunoblotted as indicated. The asterisk indicates a non-specific band. This experiment was performed twice. […] P values were calculated by unpaired t-test. Error bars indicate s.e.m. […] Error bars indicate s.e.m. The values represent the ratios between FBXL2 and GAPDH mRNAs. […] Cells were subsequently stimulated with medium containing serum and harvested at the indicated times for immunoblotting. […] Error bars indicate s.e.m. […] Cells were subsequently stimulated with medium containing serum and harvested at the indicated time points for immunoblotting. […] Error bars indicate s.e.m. […] Exon 2 and exon 3 refer to the human FBXL2 gene in NC_000003.12 (GRCh38.p7 (Gene Bank ID: 3129728)). […]\nFIGS. 6A, 6B, 6C, 6D, 6E, 6F, 6G, and 6H that the degradation of IP3R3 is dependent on FBXL2 localization to cell membranes and on the segregase activity of p97. […] Samples were analysed by immunoblotting with the indicated antibodies. […]"}, "NHFs": {"test_system": "NHFs", "test": "H2O2-induced apoptosis in NHFs transfected with FBXL2 siRNA (automated nuclei count)", "details": "pre-treated for 30 min with cyclosporin A (1 μM), H2O2 16 h", "experimental": "FIGS. 1A, 1B, 1C, 1D, 1E, 1F, 1G, and 1H show FBXL2-mediated degradation of IP3R3 controls Ca2+ flux and sensitivity to apoptosis. […] Left, two representative traces. Right, quantification of three independent experiments. P values were calculated by one-way ANOVA and multiple-comparisons test. Error bars indicate s.e.m. 1b, 1c, and 1d, Apoptosis evaluated after treatment with H2O2 using automated nuclei count analysis of twenty randomly chosen fields following a 16 h treatment (1b), immunoblot detection of cleaved PARP and cleaved caspase-3 following a 3 h treatment (1c), and automated analysis of cells with released cytochrome c (Cyt c) from 80 randomly chosen fields following a 3 h treatment (1d). […] P values were calculated by one-way ANOVA and multiple-comparisons test. […] Left, representative traces show concentrations of cytosolic Ca2+ measured with aequorin. Right, quantification of three independent experiments. P values were calculated by one-way ANOVA and multiple-comparisons test. […] Apoptosis shown in 1h was evaluated as in 1b, except that H2O2 treatment was for 5 h. Analysis of cytochrome c release shown in 1i was evaluated as in 1d. P values were calculated by unpaired t-test. […]\nDetection of cell death in cell systems. […] The mean fluorescence intensities and standard deviations of […] cytochrome c were evaluated in comparison to corresponding controls. […]"}, "FBXL2 and IP3R3": {"test_system": "FBXL2 and IP3R3", "test": "FBXL2-IP3R3 co-immunoprecipitation after ATP stimulation", "details": "ATP for 30 min; particularly upon proteasome inhibition", "experimental": "FIGS. 8A, 8B, 8C, 8D, 8E, 8F, 8G, 8H, 8I, and 8J show Mapping of the FBXL2-binding domain in IP3R3, and evidence that the N-terminal suppressor domain inhibits the IP3R3-FBXL2 interaction. […] Binding of IP3R3 to FBXL2 is indicated with the symbol (+). […] Whole-cell lysates (WCL) were immunoprecipitated (IP) with anti-Flag resin and proteins were immunoblotted as indicated. This experiment was performed twice. […] Sixteen hours after transfection, cells were incubated with MG132 for 3 h before stimulation with ATP for 30 min Whole-cell lysates were immunoprecipitated (IP) with an anti-HA resin and proteins were immunoblotted as indicated. This experiment was performed twice. […] Cells were subsequently treated with or without ATP for 30 min Whole-cell lysates were immunoprecipitated (IP) with an anti-Flag resin and proteins were immunoblotted as indicated. […] P values were calculated by one-way ANOVA and multiple-comparisons test. Error bars indicate s.e.m. […] It has been shown that removal of the N-terminal suppressor domain (amino acids 1-226) increases the binding of IP3 to the IP3 binding core domain (amino acids 227-579), and IP3 binding evokes conformational changes that open the suppressor domain29-32. These conformational changes may allow FBXL2 to access the degron of IP3R3 (that is, the amino acid region required for binding to FBXL2). […]"}, "IP3R3 [2]": {"test_system": "IP3R3", "test": "IP3R3 degradation in serum-starved and exponentially growing NHFs treated with ATP", "details": "NHFs cultured in presence or absence of serum"}}, "data": [{"compound": "CC1(C)C(N(O)C(=O)Nc2ccc(Cl)cc2)N(c2ccc(Cl)cc2)C(=O)N1CC(=O)N/N=C/C=C/c1ccc([N+](=O)[O-])o1", "note": "(centres unmarked) [Eer1, Eeyarestatin 1]", "values": [{"measurement": "IP3R3 levels / degradation after serum re-stimulation", "setting": "IP3R3 [1]", "result": "blocked IP3R3 degradation"}]}, {"compound": "CC(=O)N[C@@H](CSC(=O)[C@]1([C@@H](O)C(C)C)NC(=O)[C@H](C)[C@@H]1O)C(=O)O", "note": "[lactacystin]", "values": [{"measurement": "IP3R3 levels / degradation after serum re-stimulation", "setting": "IP3R3 [1]", "result": "much less"}]}, {"compound": "cyclosporin-A", "values": [{"measurement": "sensitization to H2O2 by FBXL2 silencing", "setting": "NHFs", "result": "abolished the sensitization to H2O2 by FBXL2 silencing"}]}, {"compound": "Nc1ncnc2c1ncn2[C@@H]1O[C@H](COP(=O)(O)OP(=O)(O)OP(=O)(O)O)[C@@H](O)[C@H]1O", "note": "[ATP]", "values": [{"measurement": "binding between FBXL2 and IP3R3", "setting": "FBXL2 and IP3R3", "result": "increased the binding between FBXL2 and IP3R3"}, {"measurement": "degradation of IP3R3", "setting": "IP3R3 [2]", "result": "promoted the degradation of IP3R3 in cells cultured in the presence, but not in the absence, of serum"}]}]}
